# In PubChem BioAssay (NCI):
#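 The compound was tested at five concentrations on cells cultured in 96-well plates, with a 48-hour exposure period. Here, GI50 denotes the concentration required for 50% inhibition of growth. TGI is the concentration that stops growth completely.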
# Tests used:
# Assay in all cases: NCI tumour cell line growth inhibition, 48 h
# [1] = tested on: 786-0 renal
# [2] = tested on: A498 renal
# [3] = tested on: A549 NSCLC
# [4] = tested on: ACHN renal
# [5] = tested on: BT-549 breast
# [6] = tested on: CAKI-1 renal
# [7] = tested on: CCRF-CEM leukemia
# [8] = tested on: COLO 205 colon
# [9] = tested on: DU-145 prostate
# [10] = tested on: EKVX NSCLC
# [11] = tested on: HCC-2998 colon
# [12] = tested on: HCT-116 colon
# [13] = tested on: HCT-15 colon
# [14] = tested on: HL-60(TB) leukemia
# [15] = tested on: HOP-62 NSCLC
# [16] = tested on: HOP-92 NSCLC
# [17] = tested on: HS 578T breast
# [18] = tested on: HT29 colon
# [19] = tested on: IGROV1 ovarian
# [20] = tested on: K-562 leukemia
# [21] = tested on: KM12 colon
# [22] = tested on: LOX IMVI melanoma
# [23] = tested on: M14 melanoma
# [24] = tested on: MALME-3M melanoma
# [25] = tested on: MDA-MB-231 breast
# [26] = tested on: MDA-MB-435
# [27] = tested on: NCI-H226 lung
# [28] = tested on: NCI-H23 lung
# [29] = tested on: NCI-H460 lung
# [30] = tested on: NCI-H522 lung
# [31] = tested on: NCI/ADR-RES ovarian
# [32] = tested on: OVCAR-3 ovarian
# [33] = tested on: OVCAR-4 ovarian
# [34] = tested on: OVCAR-5 ovarian
# [35] = tested on: OVCAR-8 ovarian
# [36] = tested on: PC-3 prostate
# [37] = tested on: RPMI-8226 leukemia
# [38] = tested on: RXF 393 renal
# [39] = tested on: SF-268 CNS
# [40] = tested on: SF-295 CNS
# [41] = tested on: SF-539 CNS
# [42] = tested on: SK-MEL-2 melanoma
# [43] = tested on: SK-MEL-28 melanoma
# [44] = tested on: SK-MEL-5 melanoma
# [45] = tested on: SK-OV-3 ovarian
# [46] = tested on: SN12C renal
# [47] = tested on: SNB-19 CNS
# [48] = tested on: SNB-75 CNS
# [49] = tested on: SR leukemia
# [50] = tested on: SW-620 colon
# [51] = tested on: T-47D breast
# [52] = tested on: TK-10 renal
# [53] = tested on: U251 CNS
# [54] = tested on: UACC-257 melanoma
# [55] = tested on: UACC-62 melanoma
# [56] = tested on: UO-31 renal
smiles,measurement,setting,value
CCOc1cc2ncc(C#N)c(Nc3ccc(OCc4cccc(F)c4)c(Cl)c3)c2cc1NC(=O)CC1CCSS1 (stereo unspecified),GI50,[1],> 13800 nM
same,TGI,[1],> 25000 nM
same,GI50,[2],> 25000 nM
same,TGI,[2],> 25000 nM
same,GI50,[3],542 nM
same,TGI,[3],1160 nM
same,GI50,[4],3100 nM
same,TGI,[4],> 25000 nM
same,GI50,[5],1870 nM
same,TGI,[5],> 25000 nM
same,GI50,[6],1770 nM
same,TGI,[6],> 25000 nM
same,GI50,[7],146 nM
same,TGI,[7],> 25000 nM
same,GI50,[8],2390 nM
same,TGI,[8],> 25000 nM
same,GI50,[9],561 nM
same,TGI,[9],1360 nM
same,GI50,[10],740 nM
same,TGI,[10],> 14300 nM
same,GI50,[11],484 nM
same,TGI,[11],974 nM
same,GI50,[12],431 nM
same,TGI,[12],1070 nM
same,GI50,[13],2760 nM
same,TGI,[13],> 25000 nM
same,GI50,[14],3480 nM
same,TGI,[14],> 25000 nM
same,TGI,[15],> 15100 nM
same,GI50,[16],> 11500 nM
same,TGI,[16],> 25000 nM
same,GI50,[17],4120 nM
same,TGI,[17],> 25000 nM
same,GI50,[18],907 nM
same,TGI,[18],> 25000 nM
same,GI50,[19],578 nM
same,TGI,[19],> 6270 nM
same,GI50,[20],902 nM
same,TGI,[20],> 25000 nM
same,GI50,[21],490 nM
same,TGI,[21],1120 nM
same,GI50,[22],447 nM
same,TGI,[22],1010 nM
same,GI50,[23],450 nM
same,TGI,[23],915 nM
same,GI50,[24],> 22300 nM
same,TGI,[24],> 25000 nM
same,GI50,[25],1020 nM
same,TGI,[25],> 25000 nM
same,GI50,[26],596 nM
same,TGI,[26],1520 nM
same,GI50,[27],11000 nM
same,TGI,[27],> 25000 nM
same,GI50,[28],2080 nM
same,TGI,[28],> 25000 nM
same,GI50,[29],465 nM
same,TGI,[29],948 nM
same,GI50,[30],> 6900 nM
same,TGI,[30],> 25000 nM
same,GI50,[31],> 25000 nM
same,TGI,[31],> 25000 nM
same,GI50,[32],1090 nM
same,TGI,[32],9300 nM
same,GI50,[33],539 nM
same,TGI,[33],1360 nM
same,GI50,[34],> 25000 nM
same,TGI,[34],> 25000 nM
same,GI50,[35],6360 nM
same,TGI,[35],> 25000 nM
same,GI50,[36],801 nM
same,TGI,[36],5910 nM
same,GI50,[37],> 25000 nM
same,TGI,[37],> 25000 nM
same,GI50,[38],2350 nM
same,TGI,[38],15800 nM
same,GI50,[39],727 nM
same,TGI,[39],3020 nM
same,GI50,[40],> 25000 nM
same,TGI,[40],> 25000 nM
same,GI50,[41],2280 nM
same,TGI,[41],> 25000 nM
same,GI50,[42],990 nM
same,TGI,[42],> 7130 nM
same,GI50,[43],1200 nM
same,TGI,[43],> 19300 nM
same,GI50,[44],2390 nM
same,TGI,[44],> 25000 nM
same,GI50,[45],476 nM
same,TGI,[45],905 nM
same,GI50,[46],> 6300 nM
same,TGI,[46],> 25000 nM
same,GI50,[47],> 25000 nM
same,TGI,[47],> 25000 nM
same,GI50,[48],> 25000 nM
same,TGI,[48],> 25000 nM
same,GI50,[49],680 nM
same,TGI,[49],> 25000 nM
same,GI50,[50],> 25000 nM
same,TGI,[50],> 25000 nM
same,GI50,[51],978 nM
same,TGI,[51],> 25000 nM
same,GI50,[52],916 nM
same,TGI,[52],6000 nM
same,GI50,[53],> 6880 nM
same,TGI,[53],> 25000 nM
same,GI50,[54],24500 nM
same,TGI,[54],> 25000 nM
same,GI50,[55],> 25000 nM
same,TGI,[55],> 25000 nM
same,GI50,[56],1040 nM
same,TGI,[56],> 25000 nM
